Measurements reported in patent US11679112B2, “Cancer treatments using combinations of CDK and ERK inhibitors” (BIOMED VALLEY DISCOVERIES, INC., priority 2013, dated 2023).

Columns and labels:
H226 cells [1] = test: Single agent proliferation assay, CellTiter-Glo, H226; type: cell-based; details: Homo sapiens; for inhibition at 3 µM: NCI-H226, @3 μM; for inhibition at 10 µM: NCI-H226, @10 μM
Protocol: (§1) Cells were seeded in 96-well plates at the densities indicated in Table 4 in RPMI containing 10% FBS and allowed to adhere overnight prior to addition of compound or vehicle control. Compounds were prepared from DMSO stocks to give the desired final concentrations. The final DMSO concentration was constant at 0.1%. Test compounds were incubated with the cells for 72 h at 37° C., 5% CO2 in a humidified atmosphere. CellTiter-Glo® reagent (Promega, Madison, Wis.) was added according to manufacturer's instructions and luminescence detected using the BMG FLUOstar plate reader (BMG Labtech, Ortenberg, Germany). A duplicate set of assay plates was incubated with 10 μg/ml Hoechst 33342 stain (Invitrogen, Grant Island, N.Y.) in complete growth medium for 1 h at 37° C., 5% CO2 in a humidified atmosphere. The medium was then removed and replaced with PBS and fluorescence detected using a BMG FLUOstar Omega plate reader (BMG labtech, Ortenberg, Germany). The average media only background value was deducted and the data analysed using a 4-parameter logistic equation in GraphPad Prism (GraphPad Software, La Jolla, Calif.).
(§2) The effects of BVD-523, the CDK4/6 inhibitors, another ERK inhibitor (SCH772984), and a reference MEK inhibitor (Trametinib), as single agents on cell viability was assessed after 72 h using two methods (FIGS. 2A-2L). The first method was by quantitating cellular ATP levels using CellTiter-Glo® (Promega, Madison, Wis.). The second method was by quantitating total amount of DNA in an assay well after staining the DNA with Hoechst stain.

H226 cells [2] = test: Single agent proliferation assay, Hoechst stain, H226; type: cell-based; details: Homo sapiens; for IC50: NCI-H226, 72 h, read-out: Relative IC50
Protocol: as §1, §2

A549 cells [3] = test: Single agent proliferation assay, Hoechst stain, A549; type: cell-based; details: Homo sapiens, 72 h, read-out: Relative IC50
Protocol: as §1, §2

A549 cells [4] = test: Single agent proliferation assay, CellTiter-Glo, A549; type: cell-based; details: Homo sapiens; for IC50: 72 h, read-out: Relative IC50
Protocol: as §1, §2

H2122 cells [5] = test: Single agent proliferation assay, Hoechst stain, H2122; type: cell-based; details: Homo sapiens, NCI-H2122, 72 h, read-out: Relative IC50
Protocol: as §1, §2

H2122 cells [6] = test: Single agent proliferation assay, CellTiter-Glo, H2122; type: cell-based; details: Homo sapiens; for IC50: NCI-H2122, 72 h, read-out: Relative IC50
Protocol: as §1, §2

H1437 cells [7] = test: Single agent proliferation assay, Hoechst stain, H1437; type: cell-based; details: Homo sapiens; for IC50: NCI-H1437, 72 h, read-out: Relative IC50
Protocol: as §1, §2

H1437 cells [8] = test: Single agent proliferation assay, CellTiter-Glo, H1437; type: cell-based; details: Homo sapiens; for inhibition at 3 µM: NCI-H1437, @3 μM; for IC50: NCI-H1437, 72 h, read-out: Relative IC50
Protocol: as §1, §2

ERK = details: Morris et al., 2013; cited from earlier work
[9] = test system: MAPK signaling in HCT-116 cells; test: Western blot of MAPK signaling in HCT116 cells; type: cell-based, human; details: HCT116, 4 hours, micromolar concentrations
Protocol: (§3) For Western blot studies, HCT116 cells (5×10^6) were seeded into 10 cm dishes in McCoy's 5A plus 10% FBS. A375 cells (2.5×10^6) were seeded into 10 cm dishes in DMEM plus 10% FBS. Cells were allowed to adhere overnight prior to addition of the indicated amount of test compound (BVD-523) or vehicle control. Cells were treated for either 4 or 24 hours before isolation of whole-cell protein lysates, as specified below. Cells were harvested by trypsinisation, pelleted and snap frozen. Lysates were prepared with RIPA (Radio-Immunoprecipitation Assay) buffer, clarified by centrifugation and quantitated by bicinchoninic acid assay (BCA) assay. 20-50 μg of protein was resolved by SDS-PAGE electrophoresis, blotted onto PVDF membrane and probed using the antibodies detailed in Table 2 (for the 4-hour treatment) and Table 3 (for the 24-hour treatment) below.

[10] = test system: MAPK signaling components in A375 cells; test: Western blot of MAPK, cell cycle and apoptosis signaling in A375 cells; type: cell-based, human
Protocol: as §3

[11] = read-out: Maximal percentage inhibition

SMILES | IC50 (H226 cells [2]) | IC50 (A549 cells [3]) | IC50 (H2122 cells [5]) | IC50 (H1437 cells [7]) | IC50 (A549 cells [4]) | IC50 (H2122 cells [6]) | IC50 (H1437 cells [8]) | inhibition at 3 µM (H226 cells [1]; [11]) | inhibition at 3 µM (H1437 cells [8]; [11]) | inhibition at 10 µM (H226 cells [1]; [11]) | also measured
CN(C)C(=O)c1cc2cnc(Nc3ccc(N4CCNCC4)cn3)nc2n1C1CCCC1 [LEE-011] | 370 nM | 700 nM | 450 nM | 2800 nM | – | – | – | – | – | 32% | inhibition at 10 µM (A549 cells [4]; @10 μM, read-out: Maximal percentage inhibition): 49%; inhibition at 10 µM (H2122 cells [6]; NCI-H2122, @10 μM, read-out: Maximal percentage inhibition): 44%; inhibition at 10 µM (H1437 cells [8]; NCI-H1437, @10 μM, read-out: Maximal percentage inhibition): 30%
CC(=O)O[C@H]1C(=O)[C@@]2(C)[C@H]([C@H](OC(=O)c3ccccc3)[C@]3(O)C[C@H](OC(=O)[C@H](O)[C@@H](NC(=O)c4ccccc4)c4ccccc4)C(C)=C1C3(C)C)[C@]1(OC(C)=O)CO[C@@H]1C[C@@H]2O [Paclitaxcel, Paclitaxel] | 3 nM | 2 nM | 2 nM | 3 nM | 3 nM | 3 nM | 7 nM | – | – | – | IC50 (H226 cells [1]; NCI-H226, 72 h, read-out: Relative IC50): 3 nM
CC(C)Nc1cc(-c2c[nH]c(C(=O)N[C@H](CO)c3cccc(Cl)c3)c2)c(Cl)cn1 [BVD-523] | – | 590 nM | 450 nM | 1400 nM | 730 nM | 450 nM | 1200 nM | – | – | 34% | phosphorylation of ERK-dependent residues (T359/S363) in RSK 1 and 2 proteins [9]: reduced; inhibition at 10 µM (H226 cells [2]; NCI-H226, @10 μM, read-out: Maximal percentage inhibition): 58%; cyclin-D1 level ([10]; 24 hours): greatly reduced; phosphorylation of ERK-dependent residues (T359/S363) in RSK 1 and 2 proteins ([10]; A375, 4 hours, micromolar concentrations): reduced; Bim-EL level ([10]; A375, prolonged treatment): increased; increased apoptosis (PARP cleavage) ([10]; A375, prolonged treatment): not observed; MAPK feedback phosphatase DUSP6 level ([10]; BRAF mutant cell line, 24 hours): greatly reduced; concentrations required to induce changes in substrate phosphorylation and effector targets of ERK ([10]; RAF and RAS mutant cancer cells, acute and prolonged treatment): low micromolar range; effect on autophosphorylation of ERK ([10]; see FIG. 1): allows for the autophosphorylation of ERK while still inhibiting ERK

Continued, in another order:

IC50 (H226 cells [2]) | IC50 (A549 cells [3]) | IC50 (H2122 cells [5]) | IC50 (H1437 cells [7]) | IC50 (A549 cells [4]) | IC50 (H2122 cells [6]) | IC50 (H1437 cells [8]) | SMILES | inhibition at 3 µM (H226 cells [1]; [11]) | inhibition at 3 µM (H1437 cells [8]; [11]) | inhibition at 10 µM (H226 cells [1]; [11]) | also measured
56 nM | 130 nM | 150 nM | 220 nM | – | – | – | CC(=O)c1c(C)c2cnc(Nc3ccc(N4CCNCC4)cn3)nc2n(C2CCCC2)c1=O [Palbociclib] | 20% | 29% | – | inhibition at 3 µM (A549 cells [4]; @3 μM, read-out: Maximal percentage inhibition): 41%; inhibition at 3 µM (H2122 cells [6]; NCI-H2122, @3 μM, read-out: Maximal percentage inhibition): 48%
– | 740 nM | 530 nM | – | 1100 nM | 630 nM | – | O=C(Nc1ccc2[nH]nc(-c3ccncc3)c2c1)[C@@H]1CCN(CC(=O)N2CCN(c3ccc(-c4ncccn4)cc3)CC2)C1 [SCH772984] | 35% | 57% | – | effect on autophosphorylation of ERK (ERK): inhibits autophosphorylation of ERK; inhibition at 3 µM (H226 cells [2]; NCI-H226, @3 μM, read-out: Maximal percentage inhibition): 49%; inhibition at 3 µM (H1437 cells [7]; NCI-H1437, @3 μM, read-out: Maximal percentage inhibition): 63%
2 nM | 5 nM | 3 nM | 3 nM | 5 nM | 3 nM | 2 nM | CC(=O)Nc1cccc(-n2c(=O)n(C3CC3)c(=O)c3c(Nc4ccc(I)cc4F)n(C)c(=O)c(C)c32)c1 [Trametinib] | – | – | – | inhibition at 1 µM (H226 cells [1]; NCI-H226, @1 μM, read-out: Maximal percentage inhibition): 57%
